# Laboratory results from ChEMBL document CHEMBL4808216, “Gut-Restricted Selective Cyclooxygenase-2 (COX-2) Inhibitors for Chemoprevention of Colorectal Cancer” (J Med Chem, 2021).
# Active and inactive are the calls of the source. The rule behind the calls is not given here.
# Assays:
# [1] = molecular target: T1, Prostaglandin G/H synthase 1 (Homo sapiens, UniProt P23219); assay: Inhibition of COX1 (unknown origin) expressed in HEK293 TRex cells assessed as reduction in PGE2 production using arachidonic acid as substrate preincubated for 60 mins followed by substrate addition for 1 hr in presence of 10% FBS by RapidFire High-Throughput Mass Spectrometry; type: ADME, cell-based, HEK293-T-REx
# [2] = molecular target: T2, Prostaglandin G/H synthase 2 (Homo sapiens, UniProt P35354); assay: Inhibition of COX2 in human whole blood assessed as reduction in LPS stimulated PGE2 production incubated for 1 hr by ELISA; type: tissue-based
# T2 sequence (P35354 whole entry): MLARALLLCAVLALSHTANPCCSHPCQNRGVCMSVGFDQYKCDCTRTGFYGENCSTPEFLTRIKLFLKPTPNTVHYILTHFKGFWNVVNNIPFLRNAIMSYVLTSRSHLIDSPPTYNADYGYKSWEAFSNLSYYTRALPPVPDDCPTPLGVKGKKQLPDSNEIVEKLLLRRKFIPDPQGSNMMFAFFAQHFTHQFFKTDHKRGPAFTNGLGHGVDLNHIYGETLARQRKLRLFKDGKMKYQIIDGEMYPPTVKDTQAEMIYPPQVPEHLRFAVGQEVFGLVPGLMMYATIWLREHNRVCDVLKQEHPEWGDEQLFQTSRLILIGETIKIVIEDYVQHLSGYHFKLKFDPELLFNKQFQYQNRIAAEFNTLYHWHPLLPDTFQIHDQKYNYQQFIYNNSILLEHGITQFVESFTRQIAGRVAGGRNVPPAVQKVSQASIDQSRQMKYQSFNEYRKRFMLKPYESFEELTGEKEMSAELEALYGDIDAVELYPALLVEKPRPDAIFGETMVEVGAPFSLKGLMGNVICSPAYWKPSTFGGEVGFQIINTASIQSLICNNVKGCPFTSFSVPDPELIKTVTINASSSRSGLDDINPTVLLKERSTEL
# [3] = test system: Mus musculus; assay: Antitumor activity in C57BL/6J mouse model of spontaneous GI-tract tumor Apc-min assessed as change in ileum polyp size at 30 to 300 mg/kg, po administered as suspension for 10 weeks; type: functional; conditions: dose 30-300 mg/kg
# [4] = in vivo; conditions: C57BL/6J, mouse, colon / portal vein plasma, po, 10 mg/kg
# Description: Ratio of drug concentration in C57BL/6J mouse colon to portal vein plasma at 10 mg/kg, po measured after 4 hr by liquid chromatographic triple-quadrupole mass spectrometric method
# [5] = molecular target: T1, Prostaglandin G/H synthase 1; assay: Inhibition of human recombinant COX-1 assessed as reduction in peroxidase activity using arachidonic acid as substrate preincubated for 60 mins followed by substrate addition for 2 secs by ADPH based fluorometric analysis; type: ADME
# [6] = molecular target: T2, Prostaglandin G/H synthase 2; assay: Inhibition of COX2 (unknown origin) expressed in HEK293 TRex cells assessed as reduction in PGE2 production using arachidonic acid as substrate preincubated for 60 mins followed by substrate addition for 1 hr in presence of 10% FBS by RapidFire High-Throughput Mass Spectrometry; type: cell-based, HEK293-T-REx
# [7] = Ratio of drug concentration in C57BL/6J mouse colon to plasma at 10 mg/kg, po measured after 4 hr by liquid chromatographic triple-quadrupole mass spectrometric method; type: ADME, organism-based; conditions: for Ratio: other tissue, 10 mg/kg, 4 h
# [8] = molecular target: T2, Prostaglandin G/H synthase 2; assay: Inhibition of human recombinant COX-2 using arachidonic acid as substrate preincubated for 60 mins followed by substrate addition for 2 secs by ADPH based fluorometric analysis
# [9] = molecular target: T3, Prostaglandin G/H synthase 2 (Homo sapiens) (UniProt P35354)
# T3 sequence (whole entry): T2 sequence (P35354 whole entry)
# Description: Protein occupancy at human recombinant COX-2 assessed as dissociation half life
# [10] = test system: Mus musculus; assay: Antitumor activity in C57BL/6J mouse model of spontaneous GI-tract tumor Apc-min assessed as reduction in total ileum polyp area at 30 to 300 mg/kg, po administered as suspension for 10 weeks; type: functional, organism-based; conditions: dose 30-300 mg/kg
# [11] = Drug concentration in C57BL/6J mouse colon at 10 mg/kg, po administered as cassette dose measured at 4 hrs by LC/MS/MS analysis; type: ADME, organism-based; conditions: read-out: Ct
# [12] = Drug concentration in C57BL/6J mouse plasma at 10 mg/kg, po administered as cassette dose measured at 4 hrs by LC/MS/MS analysis; type: ADME, organism-based
# [13] = molecular target: T2, Prostaglandin G/H synthase 2; assay: Inhibition of human recombinant COX-2 assessed as reduction in peroxidase activity using arachidonic acid as substrate preincubated for 60 mins followed by substrate addition for 2 secs by ADPH based fluorometric analysis
# [14] = Protein binding in human colon assessed as unbound fraction; type: ADME, tissue-based
# [15] = molecular target: T4, Prostaglandin G/H synthase 2 (Mus musculus, UniProt Q05769); assay: In vivo inhibition of COX2 in po dosed C57BL/6J mouse model of spontaneous GI-tract tumor Apc-min assessed as chemopreventive effect by measuring reduction in polyp area and relevant plasma exposures; type: functional, organism-based
# T4 sequence (Q05769 whole entry): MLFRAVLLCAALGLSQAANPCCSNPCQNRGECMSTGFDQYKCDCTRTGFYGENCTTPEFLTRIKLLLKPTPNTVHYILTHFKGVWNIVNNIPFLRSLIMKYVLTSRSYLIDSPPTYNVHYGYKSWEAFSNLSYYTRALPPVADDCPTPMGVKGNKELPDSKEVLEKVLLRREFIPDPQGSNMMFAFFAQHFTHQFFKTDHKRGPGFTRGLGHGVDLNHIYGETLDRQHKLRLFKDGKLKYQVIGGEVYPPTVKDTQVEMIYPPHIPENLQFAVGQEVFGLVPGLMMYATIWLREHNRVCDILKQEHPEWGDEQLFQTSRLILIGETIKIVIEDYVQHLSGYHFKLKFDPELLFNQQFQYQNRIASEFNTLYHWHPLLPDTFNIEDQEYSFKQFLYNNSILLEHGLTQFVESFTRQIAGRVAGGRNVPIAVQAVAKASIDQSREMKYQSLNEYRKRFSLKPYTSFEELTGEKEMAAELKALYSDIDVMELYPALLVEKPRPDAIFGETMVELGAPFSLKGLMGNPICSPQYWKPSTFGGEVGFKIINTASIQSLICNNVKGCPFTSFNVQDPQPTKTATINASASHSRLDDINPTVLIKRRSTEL
# [16] = molecular target: T4, Prostaglandin G/H synthase 2; assay: In vivo inhibition of COX2 in po dosed C57BL/6J mouse model of spontaneous GI-tract tumor Apc-min assessed as chemopreventive effect by measuring reduction in polyp area and relevant ileum exposures; type: functional, organism-based
# [17] = species on record: Homo sapiens; assay: Selectivity ratio of IC50 for COX1 in human whole blood assessed as reduction in calcium ionophore-stimulated TXB2 production to IC50 for COX2 in human whole blood assessed as reduction in LPS stimulated PGE2 production; type: tissue-based
# [18] = molecular target: T1, Prostaglandin G/H synthase 1; assay: Inhibition of COX1 in human whole blood assessed as reduction in calcium ionophore-stimulated TXB2 production incubated for 1 hr by ELISA; type: tissue-based
# [19] = Equilibrium solubility of compound in FASSIF at pH 6.5; type: physicochemical
# [20] = test system: Mus musculus; assay: Antitumor activity in C57BL/6J mouse model of spontaneous GI-tract tumor Apc-min assessed as reduction in total ileum polyp number at 30 to 300 mg/kg, po administered as suspension for 10 weeks; type: functional, organism-based; conditions: dose 30-300 mg/kg
# [21] = test system: Mus musculus; assay: Antitumor activity in C57BL/6J mouse model of spontaneous GI-tract tumor Apc-min assessed as reduction in total ileum polyp area at 300 mg/kg, po administered as suspension for 10 to 12 weeks; type: functional; conditions: time 10-12 weeks, read-out: TGI
# [22] = Drug concentration in C57BL/6J mouse portal vein plasma at 10 mg/kg, po administered as cassette dose measured at 4 hrs by LC/MS/MS analysis; type: ADME, organism-based
# [23] = test system: Mus musculus; assay: Antitumor activity in C57BL/6J mouse model of spontaneous GI-tract tumor Apc-min assessed as mouse survival at 100 mg/kg, po administered daily as suspension and measured at day 82 by Kaplan-Meier method; type: functional
# [24] = Protein binding in human plasma assessed as unbound fraction; type: ADME, cell-free
# [25] = test system: Mus musculus; assay: Chemo-protective activity in C57BL/6J mouse model of spontaneous GI-tract tumor Apc-min assessed as 18F-FDG uptake in ileum at 300 mg/kg, po incorporated into chow diet administered daily for 2 weeks and measured after 14 days by ex vivo PET imaging analysis relative to control; type: functional
# [26] = Half life in human hepatocytes; type: ADME, cell-based, Hepatocyte
# [27] = Tmax in C57BL/6J mouse at 10 mg/kg, po administered as cassette dose measured at 4 hrs by liquid chromatographic triple-quadrupole mass spectrometric method; type: ADME, organism-based; conditions: in vivo
# [28] = Drug metabolism in human hepatocytes assessed as metabolic turnover at 10 uM incubated up to 2 hrs by LC/MS-MS analysis; type: ADME, cell-based, Hepatocyte; conditions: read-out: Drug metabolism
# [29] = test system: HEK293; assay: Selectivity ratio of IC50 for COX1 (unknown origin) expressed in HEK293 TRex cells assessed as reduction in PGE2 production to IC50 for COX2 (unknown origin) expressed in HEK293 TRex cells assessed as reduction in PGE2 production; type: cell-based; conditions: Homo sapiens
# [30] = Half life in C57BL/6J mouse at 2 mg/kg, iv measured after 0.08 to 24 hrs; type: ADME, organism-based; conditions: in vivo, 2 mg/kg, time 0.08-24 hrs
# [31] = Half life in mouse liver microsomes; type: ADME, Microsome
# [32] = Drug concentration in C57BL/6J mouse colon at 10 mg/kg, po administered as cassette dose measured at 2 hrs by liquid chromatographic triple-quadrupole mass spectrometric method; type: ADME, organism-based; conditions: read-out: Ct
# [33] = Oral bioavailability in C57BL/6J mouse at 10 mg/kg measured up to 24 hrs by LC-MS analysis; type: ADME, organism-based; conditions: in vivo
# [34] = Oral bioavailability in Cynomolgus monkey at 10 mg/kg measured up to 24 hrs by LC-MS analysis; type: ADME, organism-based, Macaca fascicularis; conditions: in vivo
# [35] = Volume of distribution at steady state in C57BL/6J mouse at 2 mg/kg, iv measured after 0.08 to 24 hrs; type: ADME, organism-based; conditions: in vivo, 2 mg/kg, time 0.08-24 hrs
# [36] = Half life in mouse hepatocytes; type: ADME, cell-based, Hepatocyte
# [37] = Drug metabolism in mouse hepatocytes assessed as metabolic turnover at 10 uM incubated up to 2 hrs by LC/MS-MS analysis; type: ADME, cell-based, Hepatocyte
# [38] = Half life in human liver microsomes; type: ADME, Microsome
# [39] = Oral bioavailability in dog at 10 mg/kg measured up to 24 hrs by LC-MS analysis; type: ADME, organism-based, Canis lupus familiaris; conditions: in vivo
# [40] = Oral bioavailability in Sprague Dawley rat at 10 mg/kg measured up to 24 hrs by LC-MS analysis; type: ADME, organism-based; conditions: in vivo
# T1 sequence (P23219 whole entry): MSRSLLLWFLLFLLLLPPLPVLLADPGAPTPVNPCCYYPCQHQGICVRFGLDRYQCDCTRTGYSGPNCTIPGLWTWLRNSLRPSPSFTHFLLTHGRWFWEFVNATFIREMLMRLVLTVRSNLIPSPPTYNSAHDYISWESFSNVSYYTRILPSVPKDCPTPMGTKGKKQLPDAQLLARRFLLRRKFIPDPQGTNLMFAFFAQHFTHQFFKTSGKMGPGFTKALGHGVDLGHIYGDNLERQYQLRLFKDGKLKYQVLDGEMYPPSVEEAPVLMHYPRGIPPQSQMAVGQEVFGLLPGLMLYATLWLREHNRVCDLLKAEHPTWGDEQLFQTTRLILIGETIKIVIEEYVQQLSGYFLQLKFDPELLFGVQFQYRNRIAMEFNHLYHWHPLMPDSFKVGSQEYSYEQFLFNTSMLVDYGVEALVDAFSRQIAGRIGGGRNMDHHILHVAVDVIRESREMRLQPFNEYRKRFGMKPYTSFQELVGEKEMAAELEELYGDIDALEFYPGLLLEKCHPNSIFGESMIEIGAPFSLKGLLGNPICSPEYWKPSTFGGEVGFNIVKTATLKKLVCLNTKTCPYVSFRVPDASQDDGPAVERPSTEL
SMILES,IC50 [1] [nM],IC50 [2] [nM],Kp at 4 h [4],IC50 [5] [nM],IC50 [6] [nM],Ratio [7],Ki [8] [nM],T1/2 [9] [min],Activity [10],concentration at 4 h [11] [ng/g],concentration at 4 h [12] [ng/mL],IC50 [13] [nM],fraction unbound [14],IC50 [15] [nM],IC50 [16] [nM],IC50 [18] [nM],solubility thermodynamic [19] [µM],inhibition in vivo at 300 mg/kg [21] [%],concentration at 4 h [22] [ng/mL],fraction unbound [24],further results
CC(C)(O)COc1nc(OCCC(F)(F)F)c(CO)cc1-c1ccc(S(C)(=O)=O)cc1,130,877,101,> 50000,130,5264,32,1320,Active,15500,3.4,500,0.224,1.3,742,181000,44.4,48.7,179,0.01,Activity [3]: >2 mm; Ratio IC50 [17]: > 200; Activity [20]: Active; Survival [23]: 74 days; Activity [25]: 48.6%
CC(C)(O)COc1nc(OCCCC(F)(F)F)c(CO)cc1-c1ccc(S(C)(=O)=O)cc1,21800,345,77,> 50000,78,4473,12,1620,Active,16000,3.8,360,0.204,1.9,160,> 180000,111,39.8,230,0.011,Ratio [17]: > 200; Activity [20]: Active; Survival [23]: 62.5 days
CCCCOc1nc(OCC(C)(C)O)c(-c2ccc(S(C)(=O)=O)cc2)cc1CO,14100,346,29.7,> 50000,47,–,12,1080,–,4350,3,226,0.025,–,–,> 180000,66.5,35.1,24.8,0.009,"half-life [26]: 2.4 min; Tmax [27]: 15 min; metabolised at 2 h, 10 µM [28]: 100%; Ratio IC50 [29]: 300; t1/2 [30]: 13.8 min; Kp at 4 h ([7]; C57BL/6J, colon / plasma): 1620; half-life [31]: 2.7 min; concentration at 2 h [32]: 6510 ng/g; bioavailability [33]: 4.25%; bioavailability [34]: 4.87%; Vdss [35]: 4.92 L/kg; Ratio IC50 [17]: > 200; t1/2 [36]: 1.9 min; Drug metabolism [37]: 79.6%; half-life [38]: 27.8 min; bioavailability [39]: 74%; bioavailability [40]: 1.5%; Activity [25]: 48.9%"
